Source: patent US9216999B2, “Substituted pyrrolo[2,3-h][1,6]naphthyridines and compositions thereof as JAK inhibitors” (priority 2011, dated 2015)
Like-named read-outs stand apart in the source and are kept apart here.

Columns and labels:
Assay type in all cases: biochemical
[1] = target: JAK2 (Homo sapiens (Human), UniProt O60674); assay: Enzyme assay (Assay Example^a 1), JAK2
[2] = target: JAK1 (Homo sapiens (Human), UniProt P23458); assay: Enzyme assay (Assay Example^a 1), JAK1; conditions: ATP 100 μM
[3] = target: Tyk2 (Homo sapiens (Human), UniProt P29597); assay: Enzyme assay (Assay Example^a 1), Tyk2; conditions: ATP 100 μM
Tyk2, sequence (P29597 whole entry): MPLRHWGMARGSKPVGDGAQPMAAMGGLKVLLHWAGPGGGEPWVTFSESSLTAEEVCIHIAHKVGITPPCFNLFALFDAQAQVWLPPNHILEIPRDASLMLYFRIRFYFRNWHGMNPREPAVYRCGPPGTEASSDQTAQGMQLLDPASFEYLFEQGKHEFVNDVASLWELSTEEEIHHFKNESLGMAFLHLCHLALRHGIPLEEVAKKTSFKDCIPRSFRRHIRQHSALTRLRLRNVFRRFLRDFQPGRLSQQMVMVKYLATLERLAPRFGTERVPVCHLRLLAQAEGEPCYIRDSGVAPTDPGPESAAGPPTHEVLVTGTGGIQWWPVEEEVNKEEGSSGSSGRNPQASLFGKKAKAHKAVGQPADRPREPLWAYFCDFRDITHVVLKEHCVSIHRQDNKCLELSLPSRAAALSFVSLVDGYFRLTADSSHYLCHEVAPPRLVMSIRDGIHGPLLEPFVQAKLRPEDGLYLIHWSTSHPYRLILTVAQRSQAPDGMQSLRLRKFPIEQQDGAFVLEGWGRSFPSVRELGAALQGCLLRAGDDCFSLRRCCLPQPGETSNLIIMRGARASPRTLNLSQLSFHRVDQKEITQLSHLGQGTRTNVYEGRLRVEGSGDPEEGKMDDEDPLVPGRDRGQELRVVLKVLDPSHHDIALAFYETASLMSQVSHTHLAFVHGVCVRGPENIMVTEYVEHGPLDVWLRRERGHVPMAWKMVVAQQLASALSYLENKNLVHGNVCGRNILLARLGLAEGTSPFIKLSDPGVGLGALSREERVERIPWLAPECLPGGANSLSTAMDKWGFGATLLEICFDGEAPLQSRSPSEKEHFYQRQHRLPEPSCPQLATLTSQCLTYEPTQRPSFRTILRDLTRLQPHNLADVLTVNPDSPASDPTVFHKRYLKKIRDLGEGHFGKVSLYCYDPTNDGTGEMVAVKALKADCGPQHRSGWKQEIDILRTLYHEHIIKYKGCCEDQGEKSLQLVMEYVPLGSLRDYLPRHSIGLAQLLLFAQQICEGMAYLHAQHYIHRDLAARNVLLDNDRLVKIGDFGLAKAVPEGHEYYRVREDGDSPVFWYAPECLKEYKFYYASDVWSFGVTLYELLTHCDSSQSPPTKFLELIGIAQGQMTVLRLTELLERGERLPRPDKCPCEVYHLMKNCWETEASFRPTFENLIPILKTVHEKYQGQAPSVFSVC

[4] = target: JAK3 (Homo sapiens (Human), UniProt P52333); assay: Enzyme assay (Assay Example^a 1), JAK3
JAK3, sequence (P52333 whole entry): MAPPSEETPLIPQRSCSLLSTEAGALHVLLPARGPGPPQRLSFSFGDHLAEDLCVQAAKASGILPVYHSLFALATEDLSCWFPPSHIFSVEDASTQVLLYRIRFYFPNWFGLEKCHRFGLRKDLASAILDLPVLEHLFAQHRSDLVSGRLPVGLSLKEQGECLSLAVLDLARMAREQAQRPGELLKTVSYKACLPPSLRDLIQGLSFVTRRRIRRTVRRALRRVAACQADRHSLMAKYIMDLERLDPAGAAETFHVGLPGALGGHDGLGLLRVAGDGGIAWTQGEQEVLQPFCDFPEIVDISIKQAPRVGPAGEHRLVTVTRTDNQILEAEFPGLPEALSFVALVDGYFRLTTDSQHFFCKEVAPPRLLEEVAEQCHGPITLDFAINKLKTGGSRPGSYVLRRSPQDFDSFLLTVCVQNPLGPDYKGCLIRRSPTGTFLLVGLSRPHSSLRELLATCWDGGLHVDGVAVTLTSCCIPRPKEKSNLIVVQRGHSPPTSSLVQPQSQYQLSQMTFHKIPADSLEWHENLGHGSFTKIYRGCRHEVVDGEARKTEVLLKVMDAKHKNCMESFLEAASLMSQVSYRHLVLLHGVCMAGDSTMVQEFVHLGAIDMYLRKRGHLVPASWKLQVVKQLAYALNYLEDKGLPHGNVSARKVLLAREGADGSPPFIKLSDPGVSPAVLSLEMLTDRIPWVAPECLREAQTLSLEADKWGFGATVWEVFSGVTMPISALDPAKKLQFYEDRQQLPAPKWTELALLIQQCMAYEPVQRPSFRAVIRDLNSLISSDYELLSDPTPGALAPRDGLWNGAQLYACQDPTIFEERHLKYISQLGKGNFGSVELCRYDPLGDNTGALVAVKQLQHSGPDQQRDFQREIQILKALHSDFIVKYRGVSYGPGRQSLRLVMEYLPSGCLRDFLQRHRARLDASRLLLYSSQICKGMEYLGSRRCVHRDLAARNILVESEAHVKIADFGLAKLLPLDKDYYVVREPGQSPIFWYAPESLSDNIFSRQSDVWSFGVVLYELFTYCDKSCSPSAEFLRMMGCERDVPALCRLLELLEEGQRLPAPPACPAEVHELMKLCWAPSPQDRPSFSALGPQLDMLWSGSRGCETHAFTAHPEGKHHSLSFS

| Compound | IC50 [2] | IC50 [3] | IC50 ([4]; ATP 100 μM) | further results |
| --- | --- | --- | --- | --- |
| OC(CN[C@H]1CC[C@@H](c2nnn3cnc4[nH]ccc4c23)CC1)(c1ccccc1)C(F)(F)F (mixture of isomers) [196a, 3-{[cis-4-(7H-pyrrolo[3,2-e][1,2,3]triazolo[1,5-c]pyrimidin-1-yl)cyclohexyl]amino}-1,1,1-trifluoro-2-phenylpropan-2-ol] | – | – | – | IC50 ([1]; ATP 100 μM, Table^a 154): 0.75 µM; IC50 ([2]; Table^a 154): 0.06 µM |
| O=S(=O)(C[C@H]1CC[C@H](c2nnn3cnc4[nH]ccc4c23)CC1)c1ccccc1 [compound 364, 1-{trans-4-[(phenylsulfonyl)methyl]cyclohexyl}-7H-pyrrolo[3,2-e][1,2,3]triazolo[1,5-c]pyrimidine] | 0.0057 µM | – | – | IC50 ([1]; ATP 100 μM): 0.011 µM |
| FC(F)(F)c1cc(CN2CCC(c3nnn4cnc5[nH]ccc5c34)CC2)ccc1Cl [compound 155] | – | – | – | IC50 ([1]; ATP 100 μM, Table^a 154): 0.032 µM; IC50 ([2]; Table^a 154): 0.011 µM |
| FC(F)(F)c1ccc(CN2CCC(c3nnn4cnc5[nH]ccc5c34)CC2)cc1 [compound 33] | – | – | – | IC50 [1]: 0.019 µM |
| N#CCC[C@H]1CC[C@H](c2nnn3cnc4[nH]ccc4c23)CC1 [compound 441, 3-[trans-4-(7H-Pyrrolo[3,2-e][1,2,3]triazolo[1,5-c]pyrimidin-1-yl)cyclohexyl]propanenitrile] | 0.0016 µM | 0.024 µM | 0.12 µM | – |
| N#CC(C#N)C[C@H]1CC[C@H](c2nnn3cnc4[nH]ccc4c23)CC1 [compound 432, 2-{[trans-4-(7H-Pyrrolo[3,2-e][1,2,3]triazolo[1,5-c]pyrimidin-1-yl)cyclohexyl]methyl}malononitrile] | – | 0.067 µM | 0.17 µM | IC50 ([1]; ATP 100 μM): 0.0088 µM |
| N#Cc1ccc(CCN2CCC(c3nnn4cnc5[nH]ccc5c34)CC2)cc1 [compound 375, 4-{2-[4-(7H-Pyrrolo[3,2-e][1,2,3]triazolo[1,5-c]pyrimidin-1-yl)piperidin-1-yl]ethyl}benzonitrile] | 0.047 µM | > 1 µM | > 1 µM | – |
| O=C(NCC(F)(F)F)[C@H]1CC[C@H](c2nnn3cnc4[nH]ccc4c23)CC1 [compound 354, trans-4-(7H-pyrrolo[3,2-e][1,2,3]triazolo[1,5-c]pyrimidin-1-yl)-N-(2,2,2-trifluoroethyl)cyclohexanecarboxamide] | 0.0018 µM | 0.16 µM | 0.69 µM | – |
| CC(C)(C)OC(=O)N1CCC(c2nnn3cnc4[nH]ccc4c23)CC1 [compound 24] | – | – | – | IC50 [1]: 0.51 µM |
| OCCN(Cc1ccccc1)C[C@H]1CC[C@H](c2nnn3cnc4[nH]ccc4c23)CC1 [compound 268, 2-({[trans-4-(7H-pyrrolo[3,2-e][1,2,3]triazolo[1,5-c]pyrimidin-1-yl)cyclohexyl]methyl}(benzyl)amino)ethanol] | 0.0044 µM | 0.12 µM | 0.72 µM | – |
| c1cc2c(ncn3cnc(C4CCCCC4)c23)[nH]1 [compound 2] | 0.014 µM | – | – | IC50 ([1]; ATP 100 μM): 0.017 µM |
| FC(F)(F)CN(CC1CC1)[C@H]1CC[C@H](c2nnn3cnc4[nH]ccc4c23)CC1 [compound 413, trans-N-(Cyclopropylmethyl)-4-(7H-pyrrolo[3,2-e][1,2,3]triazolo[1,5-c]pyrimidin-1-yl)-N-(2,2,2-trifluoroethyl)cyclohexanamine] | 0.02 µM | 0.62 µM | > 1 µM | – |
| Clc1ccc(CN[C@H]2CC[C@@H](c3nnn4cnc5[nH]ccc5c34)CC2)cc1 [197a, cis-N-(4-chlorobenzyl)-4-(7H-pyrrolo[3,2-e][1,2,3]triazolo[1,5-c]pyrimidin-1-yl)cyclohexanamine] | – | – | – | IC50 ([3]; Table^a 154): 0.15 µM; IC50 ([4]; ATP 100 μM, Table^a 154): > 1 µM; IC50 ([2]; Table^a 154): 0.016 µM |
| Cc1cc(OC(F)(F)F)ccc1NC[C@H]1CC[C@H](c2nnn3cnc4[nH]ccc4c23)CC1 [compound 104] | – | – | – | IC50 ([3]; Table^a 154): > 1 µM; IC50 ([1]; ATP 100 μM, Table^a 154): > 1 µM; IC50 ([4]; ATP 100 μM, Table^a 154): > 1 µM |
| CC1(C)CC1NC[C@H]1CC[C@H](c2nnn3cnc4[nH]ccc4c23)CC1 (stereo partly drawn) [compound 290, N-{[trans-4-(7H-pyrrolo[3,2-e][1,2,3]triazolo[1,5-c]pyrimidin-1-yl)cyclohexyl]methyl}-2,2-dimethylcyclopropanamine] | 0.0076 µM | 0.27 µM | 0.5 µM | – |
| Cc1nc(C2CCCCC2)c2c3cc[nH]c3ncn12 [compound 1] | 0.23 µM | 0.59 µM | – | IC50 [4]: 1.4 µM |
| Cc1cc(OC(F)(F)F)ccc1NC1CCC(c2nnn3cnc4[nH]ccc4c23)CC1 (stereo not shown) [compound 133] | – | – | – | IC50 ([3]; Table^a 154): > 1 µM; IC50 [4]: > 1 µM; IC50 ([2]; Table^a 154): 0.12 µM |
| CC1CCN(C(=O)OC(C)(C)C)CC1c1nnn2cnc3[nH]ccc3c12 (stereo not shown) [compound 11] | – | – | – | IC50 ([1]; ATP 100 μM, Table^a 154): 0.34 µM |

| Compound | IC50 [2] | IC50 [3] | IC50 ([4]; ATP 100 μM) | further results |
| --- | --- | --- | --- | --- |
| NC(=O)c1ccc(CN2CCC(c3nnn4cnc5[nH]ccc5c34)CC2)cc1 [compound 241, 4-{[4-(7H-pyrrolo[3,2-e][1,2,3]triazolo[1,5-c]pyrimidin-1-yl)piperidin-1-yl]methyl}benzamide] | 0.046 µM | > 1 µM | > 1 µM | – |
| FC(F)(F)C(N[C@H]1CC[C@H](c2nnn3cnc4[nH]ccc4c23)CC1)C(F)(F)F [400b, trans-N-(1,1,1,3,3,3-hexafluoropropan-2-yl)-4-(7H-pyrrolo[3,2-e][1,2,3]triazolo[1,5-c]pyrimidin-1-yl)cyclohexanamine] | 0.042 µM | 0.84 µM | > 1 µM | – |
| FC(F)CN[C@H]1CC[C@H](c2nnn3cnc4[nH]ccc4c23)CC1 [399b, trans-N-(2,2-difluoroethyl)-4-(7H-pyrrolo[3,2-e][1,2,3]triazolo[1,5-c]pyrimidin-1-yl)cyclohexanamine] | 0.0075 µM | 0.2 µM | > 1 µM | – |
| c1cc2c(ncn3nnc(C4CCNCC4)c23)[nH]1 [compound 27] | – | – | – | IC50 [1]: > 1 µM |
| O=S(=O)(C[C@H]1CC[C@H](c2nnn3cnc4[nH]ccc4c23)CC1)c1ccc(F)cc1 [compound 365, 1-(trans-4-{[(4-fluorophenyl)sulfonyl]methyl}cyclohexyl)-7H-pyrrolo[3,2-e][1,2,3]triazolo[1,5-c]pyrimidine] | 0.0054 µM | 0.34 µM | 0.74 µM | – |
| FC1(F)CCN(C[C@H]2CC[C@H](c3nnn4cnc5[nH]ccc5c34)CC2)C1 [compound 328, 1-{trans-4-[(3,3-difluoropyrrolidin-1-yl)methyl]cyclohexyl}-7H-pyrrolo[3,2-e][1,2,3]triazolo[1,5-c]pyrimidine] | 0.0073 µM | 0.9 µM | 0.53 µM | – |
| Cc1ccc(CN2CCC(c3nnn4cnc5[nH]ccc5c34)CC2)s1 [compound 236, 1-{1-[(5-methylthiophen-2-yl)methyl]piperidin-4-yl}-7H-pyrrolo[3,2-e][1,2,3]triazolo[1,5-c]pyrimidine] | 0.0068 µM | > 1 µM | 0.45 µM | – |
| FC(F)(F)CNC[C@H]1CC[C@H](c2nnn3cnc4[nH]ccc4c23)CC1 [compound 188, N-{[trans-4-(7H-pyrrolo[3,2-e][1,2,3]triazolo[1,5-c]pyrimidin-1-yl)cyclohexyl]methyl}-2,2,2-trifluoroethanamine] | – | – | – | IC50 ([3]; Table^a 154): 0.063 µM; IC50 ([4]; ATP 100 μM, Table^a 154): 0.11 µM; IC50 ([2]; Table^a 154): 0.0012 µM |
| COc1ccc(CN2CCC(c3nnn4cnc5[nH]ccc5c34)CC2)cn1 [compound 170, 1-{1-[(6-methoxypyridin-3-yl)methyl]piperidin-4-yl}-7H-pyrrolo[3,2-e][1,2,3]triazolo[1,5-c]pyrimidine] | – | – | – | IC50 ([3]; Table^a 154): > 1 µM; IC50 ([4]; ATP 100 μM, Table^a 154): 0.52 µM; IC50 ([2]; Table^a 154): 0.021 µM |
| COCCN(C)C[C@H]1CC[C@H](c2nnn3cnc4[nH]ccc4c23)CC1 [compound 325, N-{[trans-4-(7H-pyrrolo[3,2-e][1,2,3]triazolo[1,5-c]pyrimidin-1-yl)cyclohexyl]methyl}-2-methoxy-N-methylethanamine] | 0.011 µM | 0.88 µM | > 1 µM | – |
| Fc1ccc(C2(NC[C@H]3CC[C@H](c4nnn5cnc6[nH]ccc6c45)CC3)CC2)cc1 [compound 323, N-{[trans-4-(7H-pyrrolo[3,2-e][1,2,3]triazolo[1,5-c]pyrimidin-1-yl)cyclohexyl]methyl}-1-(4-fluorophenyl)cyclopropanamine] | – | 0.78 µM | 0.83 µM | IC50 ([1]; ATP 100 μM): 0.034 µM |
| N#Cc1ccc(NC[C@H]2CC[C@H](c3nnn4cnc5[nH]ccc5c34)CC2)cc1C(F)(F)F [compound 105] | – | – | – | IC50 ([3]; Table^a 154): 0.37 µM; IC50 ([1]; ATP 100 μM, Table^a 154): 0.19 µM; IC50 ([4]; ATP 100 μM, Table^a 154): > 1 µM |
| Fc1ccc(C2(NC[C@H]3CC[C@H](c4nnn5cnc6[nH]ccc6c45)CC3)COC2)cc1 [compound 322, N-{[trans-4-(7H-pyrrolo[3,2-e][1,2,3]triazolo[1,5-c]pyrimidin-1-yl)cyclohexyl]methyl}-3-(4-fluorophenyl)oxetan-3-amine] | 0.0013 µM | 0.43 µM | 0.2 µM | – |
| O=C(NCC(O)(c1ccc(F)cc1)C(F)(F)F)[C@H]1CC[C@H](c2nnn3cnc4[nH]ccc4c23)CC1 (stereo partly drawn) [compound 347, trans-4-(7H-Pyrrolo[3,2-e][1,2,3]triazolo[1,5-c]pyrimidin-1-yl)-N-[3,3,3-trifluoro-2-(4-fluorophenyl)-2-hydroxypropyl]cyclohexanecarboxamide] | 0.0069 µM | > 1 µM | 0.65 µM | – |
| c1cc2c(ncn3nnc(C4CCCNC4)c23)[nH]1 (racemic) [compound 15] | – | – | – | IC50 ([3]; Table^a 154): > 1 µM; IC50 ([1]; ATP 100 μM, Table^a 154): 2.5 µM |
| CN(C)S(=O)(=O)c1ccc2c(c1)CCN2C[C@H]1CC[C@H](c2nnn3cnc4[nH]ccc4c23)CC1 [compound 190, 1-{[trans-4-(7H-pyrrolo[3,2-e][1,2,3]triazolo[1,5-c]pyrimidin-1-yl)cyclohexyl]methyl}-N,N-dimethylindoline-5-sulfonamide] | – | – | – | IC50 ([3]; Table^a 154): 0.61 µM; IC50 ([4]; ATP 100 μM, Table^a 154): > 1 µM; IC50 ([2]; Table^a 154): 0.022 µM |
| OC(CN1CCC(c2nnn3cnc4[nH]ccc4c23)CC1)c1ccc(C(F)(F)F)cc1 (racemic) [compound 212, 2-[4-(7H-Pyrrolo[3,2-e][1,2,3]triazolo[1,5-c]pyrimidin-1-yl)piperidin-1-yl]-1-[4-(trifluoromethyl)phenyl]ethanol] | – | – | – | IC50 ([3]; Table^a 154): 0.45 µM; IC50 ([1]; ATP 100 μM, Table^a 154): 0.047 µM |
